In US7183280B2, “Bicyclic imidazole derivatives, the preparation thereof and their use as pharmaceutical compositions” (Boehringer Ingelheim International GmbH, priority 2004, dated 2007) one finds IC50 and toxic side effects data, which are given here for five compounds.

The target of data set [1] is T1, DPP-IV (Homo sapiens, UniProt P27487).
T1 construct: an extract of the human colon carcinoma cell line Caco-2 is used as the DPP IV source; endogenous in cells; host or cells: Caco-2 (human colon carcinoma), differentiated to induce DPP-IV expression; Nonidet-P40 solubilised extract
T1 sequence (P27487 whole entry): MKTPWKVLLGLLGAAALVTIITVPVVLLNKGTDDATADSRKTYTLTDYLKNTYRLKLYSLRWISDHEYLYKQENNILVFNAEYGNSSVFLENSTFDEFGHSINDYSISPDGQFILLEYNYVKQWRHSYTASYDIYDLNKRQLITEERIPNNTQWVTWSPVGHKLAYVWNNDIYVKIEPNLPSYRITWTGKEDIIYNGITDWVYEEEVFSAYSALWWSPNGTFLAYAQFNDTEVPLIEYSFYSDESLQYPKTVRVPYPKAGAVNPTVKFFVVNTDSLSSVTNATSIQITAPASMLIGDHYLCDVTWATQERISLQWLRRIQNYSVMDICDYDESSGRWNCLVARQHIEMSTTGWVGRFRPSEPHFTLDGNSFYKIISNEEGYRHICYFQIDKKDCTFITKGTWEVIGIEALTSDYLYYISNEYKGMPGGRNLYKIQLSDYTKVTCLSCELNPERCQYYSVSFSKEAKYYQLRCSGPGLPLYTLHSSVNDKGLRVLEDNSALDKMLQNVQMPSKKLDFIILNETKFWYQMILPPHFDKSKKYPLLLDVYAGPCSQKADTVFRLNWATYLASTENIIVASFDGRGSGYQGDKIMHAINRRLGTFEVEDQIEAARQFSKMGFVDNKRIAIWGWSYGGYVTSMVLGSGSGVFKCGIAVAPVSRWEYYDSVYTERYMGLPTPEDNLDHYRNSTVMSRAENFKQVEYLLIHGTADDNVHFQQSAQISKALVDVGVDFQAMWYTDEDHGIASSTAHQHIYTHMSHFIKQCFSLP
Nature of the data set: DPP-IV assay with Caco-2 cell extract, AFC substrate, fluorescence. It counts as biochemical. To be noted: extract of human colon carcinoma cell line Caco-2 as DPP IV source; AFC substrate 100 μM; 60 minutes, ambient temperature; read-out: DPP IV inhibition IC50. On the procedure:
The differentiation of the cells in order to induce the DPP-IV expression was carried out in accordance with the description by Reiher et al. in an article entitled “Increased expression of intestinal cell line Caco-2”, which appeared in Proc. Natl. Acad. Sci. Vol. 90, pp. 5757–5761 (1993). The cell extract was obtained from cells solubilised in a buffer (10 mM Tris HCl, 0.15 M NaCl, 0.04 t.i.u. aprotinin, 0.5% Nonidet-P40, pH 8.0) by centrifugation at 35,000 g for 30 minutes at 4° C. (to remove cell debris).
The DPP-IV assay was carried out as follows:
50 μl of substrate solution (AFC; AFC is amido-4-trifluoromethylcoumarin), final concentration 100 μM, were placed in black microtitre plates. 20 μl of assay buffer (final concentrations 50 mM Tris HCl pH 7.8, 50 mM NaCl, 1% DMSO) was pipetted in. The reaction was started by the addition of 30 μl of solubilised Caco-2 protein (final concentration 0.14 μg of protein per well). The test substances under investigation were typically added prediluted to 20 μl, while the volume of assay buffer was then reduced accordingly. The reaction was carried out at ambient temperature, the incubation period was 60 minutes. Then the fluorescence was measured in a Victor 1420 Multilabel Counter, with the excitation wavelength at 405 nm and the emission wavelength at 535 nm. Dummy values (corresponding to 0% activity) were obtained in mixtures with no Caco-2 protein (volume replaced by assay buffer), control values (corresponding to 100% activity) were obtained in mixtures without any added substance. The potency of the test substances in question, expressed as IC50 values, were calculated from dosage/activity curves consisting of 11 measured points in each case.

The test system of data set [2] is rats. Put plainly: Tolerability in rats after oral administration. To be noted: oral administration of 10 mg/kg. It counts as in vivo.

On to “1-[(1-oxy-quinolin-2-yl)methyl]-3-methyl-7-(2-butyn-1-yl)-8-((R)-3-amino-piperidin-1-yl)-xanthine [1(1)]”, for which, in data set [1], the IC50 turned out to be 1 nM.
Regarding `CC#CCn1c(N2CCC[C@@H](N)C2)nc2c1c(=O)n(Cc1nc3ccccc3c[n+]1[O-])c(=O)n2C` [1(4), 1-[(3-oxy-quinazolin-2-yl)methyl]-3-methyl-7-(2-butyn-1-yl)-8-((R)-3-amino-piperidin-1-yl)-xanthine], the IC50 in data set [1] came to 2 nM.
With `CC#CCn1c(N2CCC[C@@H](N)C2)nc2c1c(=O)n(Cc1c3ccccc3c3ccccc3[n+]1[O-])c(=O)n2C` [1(3), 1-[(5-oxy-phenanthridin-6-yl)methyl]-3-methyl-7-(2-butyn-1-yl)-8-((R)-3-amino-piperidin-1-yl)-xanthine], in data set [1], the half-maximal inhibitory concentration (IC50) worked out at 6 nM.
Still for that read-out and setting: the result for `CC#CCn1c(N2CCC[C@@H](N)C2)nc2c1c(=O)n(Cc1c3ccccc3cc(C)[n+]1[O-])c(=O)n2C` [1(2), 1-[(3-methyl-2-oxy-isoquinolin-1-yl)methyl]-3-methyl-7-(2-butyn-1-yl)-8-((R)-3-amino-piperidin-1-yl)-xanthine] reads 4 nM.
`CC#CCn1c(N2CCC[C@@H](N)C2)nc2c1c(=O)n(Cc1nc3ccccc3c(C)[n+]1[O-])c(=O)n2C` [Example 1, 1-[(4-methyl-3-oxy-quinazolin-2-yl)methyl]-3-methyl-7-(2-butyn-1-yl)-8-((R)-3-amino-piperidin-1-yl)-xanthine]: the IC50 in data set [1] turned out to be 2 nM. For the same compound, the toxic side effects result in data set [2] is listed as “no toxic side effects could be detected”.

The term IC50 denotes the midpoint of a concentration-inhibition curve.
